From patent publication US12448389B2, “BRM targeting compounds and associated methods of use” (Prelude Therapeutics Incorporated, priority 2020, dated 2025)

What was measured:
SMARCA4-HiBiT = target: T1, SMARCA4-HiBiT (Homo sapiens, UniProt P51532); test: SMARCA4 HiBiT degradation assay in HeLa cells; type: cell-based; conditions: 18 hours incubation; for DC50: read-out: HeLa-HiBit-SM4 DC50; for Dmax: HeLa, read-out: HeLa-HiBit-SM4 Dmax (%)
T1 construct: SMARCA4-HiBiT knock-in Hela monoclonal cell (CS3023226); host or cells: HeLa monoclonal knock-in line (CRISPR HiBiT knock-in at the endogenous locus, heterozygous)
Experimental: (§1) HiBiT peptide knock-in of SMARCA2 in LgBiT expressing HEK293T cells was performed by CRISPR-mediated tagging system as described Promega. The homozygous HiBiT knock-in on c-terminus SMARCA2 was confirmed by sanger sequence. SMARCA2-HiBiT knock-in Hela monoclonal cell (CS302366) and SMARCA4-HiBiT knock-in Hela monoclonal cell (CS3023226) were purchased from Promega. The heterozygous HiBiT-knock-in was confirmed by sanger sequence in both SMARCA2-HiBiT and SMARCA4-HiBiT monoclonal cells.
(§2) SMARCA2 HiBiT and SMARCA4 HiBiT Degradation Assay in HeLa Cells
(§3) Dispense 10 ul aliquot of prepared Hela-SMARCA2-HiBiT or Hela-SMARCA4-HiBiT cells (1:1 ratio of cells:Trypan Blue (#1450013, Bio-Rad)) onto cell counting slide (#145-0011, Bio-Rad) and obtain cell density and cell viability using cell counter (TC20, Bio-Rad). Remove appropriate volume of resuspended cells from culture flask to accommodate 2500 cells/well @20 μL/well. Transfer Hela-HiBiT cells to 50 mL conical (#430290, Corning). Spin down at 1000 rpm for 5 min using tabletop centrifuge (SPINCHRON 15, Beckman). Discard supernatant and resuspend cell pellet in modified EMEM (#30-2003, ATCC) cell culture media containing 10% FBS (F2422-500ML, Sigma), and 1×Penicillin/Streptomycin (200 g/L) (30-002-CI, Corning) to a cell density of 125,000 cells/mL. Dispense 20 μL of resuspended Hela-HiBit cells per well in 384-well TC treated plate (#12-565-343, Thermo Scientific) using standard cassette (#50950372, Thermo Scientific) on Multidrop Combi (#5840310, Thermo Scientific) inside laminar flow cabinet. Dispense test compounds onto plates using digital liquid dispenser (D300E, Tecan). Incubate plates in humidified tissue culture incubator @37° C. for 18 hours. Add 20 μL of prepared Nano-Glo® HiBiT Lytic detection buffer (N3050, Promega) to each well of 384-well plate using small tube cassette (#24073295, Thermo Scientific) on Multidrop Combi, incubate @RT for 30-60 min. Read plates on microplate reader (Envision 2105, PerkinElmer) using 384 well Ultra-Sensitive luminescence mode. Raw data files and compound information reports are swept into centralized data lake and deconvoluted using automated scripts designed by TetraScience, Inc. Data analysis, curve-fitting and reporting done in Dotmatics Informatics Suite using Screening Ultra module.

SMARCA2-HiBiT = target: T2, SMARCA2-HiBiT (Homo sapiens, UniProt P51531); test: SMARCA2 HiBiT degradation assay in HeLa cells; type: cell-based; conditions: 18 hours incubation; for DC50: read-out: HeLa_HiBit-SM2 DC50; for Dmax: HeLa, read-out: HeLa-HiBit-SM2 Dmax (%)
T2 construct: SMARCA2-HiBiT knock-in Hela monoclonal cell (CS302366); host or cells: HeLa monoclonal knock-in line (CRISPR HiBiT knock-in at the endogenous locus, heterozygous)
Experimental: as §1, §2, §3

T2 sequence (P51531 whole entry): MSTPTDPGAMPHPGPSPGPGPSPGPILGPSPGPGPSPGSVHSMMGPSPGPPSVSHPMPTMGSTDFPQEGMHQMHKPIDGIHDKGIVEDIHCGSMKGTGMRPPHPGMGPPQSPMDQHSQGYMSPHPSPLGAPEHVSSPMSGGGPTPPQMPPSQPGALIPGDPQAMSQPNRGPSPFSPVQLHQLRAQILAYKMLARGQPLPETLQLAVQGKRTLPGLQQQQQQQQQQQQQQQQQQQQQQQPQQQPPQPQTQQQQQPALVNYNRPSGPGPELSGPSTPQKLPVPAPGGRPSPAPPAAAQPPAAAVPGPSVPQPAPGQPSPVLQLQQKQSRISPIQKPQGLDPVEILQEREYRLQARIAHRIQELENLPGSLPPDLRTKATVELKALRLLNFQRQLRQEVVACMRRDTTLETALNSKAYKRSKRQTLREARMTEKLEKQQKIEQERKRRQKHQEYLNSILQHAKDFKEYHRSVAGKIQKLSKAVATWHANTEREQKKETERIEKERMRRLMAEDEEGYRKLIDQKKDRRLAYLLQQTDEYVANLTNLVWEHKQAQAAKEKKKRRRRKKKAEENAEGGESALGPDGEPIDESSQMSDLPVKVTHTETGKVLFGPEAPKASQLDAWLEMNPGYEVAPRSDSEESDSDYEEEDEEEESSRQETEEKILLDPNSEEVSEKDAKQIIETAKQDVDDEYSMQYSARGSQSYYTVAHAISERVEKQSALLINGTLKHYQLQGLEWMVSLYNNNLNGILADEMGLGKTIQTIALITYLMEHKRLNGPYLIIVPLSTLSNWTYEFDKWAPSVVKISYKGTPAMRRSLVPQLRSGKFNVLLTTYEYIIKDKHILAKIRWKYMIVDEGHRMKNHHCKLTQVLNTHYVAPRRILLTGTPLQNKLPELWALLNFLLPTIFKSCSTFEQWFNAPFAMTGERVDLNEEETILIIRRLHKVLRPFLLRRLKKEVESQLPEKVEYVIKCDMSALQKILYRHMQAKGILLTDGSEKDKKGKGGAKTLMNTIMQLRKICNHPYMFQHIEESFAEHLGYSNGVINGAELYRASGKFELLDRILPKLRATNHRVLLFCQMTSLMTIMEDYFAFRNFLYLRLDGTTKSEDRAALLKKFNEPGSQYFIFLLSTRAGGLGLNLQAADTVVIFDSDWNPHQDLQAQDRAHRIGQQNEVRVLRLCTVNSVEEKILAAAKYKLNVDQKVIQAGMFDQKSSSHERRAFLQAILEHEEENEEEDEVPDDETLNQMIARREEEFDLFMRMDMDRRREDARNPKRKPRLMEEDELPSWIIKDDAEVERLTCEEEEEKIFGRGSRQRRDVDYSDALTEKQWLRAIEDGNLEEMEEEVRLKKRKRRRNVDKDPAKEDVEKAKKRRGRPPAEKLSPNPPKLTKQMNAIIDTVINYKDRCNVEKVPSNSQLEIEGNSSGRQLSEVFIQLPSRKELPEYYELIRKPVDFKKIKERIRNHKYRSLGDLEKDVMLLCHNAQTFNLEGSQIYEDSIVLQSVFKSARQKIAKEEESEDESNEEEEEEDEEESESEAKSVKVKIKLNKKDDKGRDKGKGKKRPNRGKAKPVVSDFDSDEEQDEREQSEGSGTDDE
T1 sequence (P51532 whole entry): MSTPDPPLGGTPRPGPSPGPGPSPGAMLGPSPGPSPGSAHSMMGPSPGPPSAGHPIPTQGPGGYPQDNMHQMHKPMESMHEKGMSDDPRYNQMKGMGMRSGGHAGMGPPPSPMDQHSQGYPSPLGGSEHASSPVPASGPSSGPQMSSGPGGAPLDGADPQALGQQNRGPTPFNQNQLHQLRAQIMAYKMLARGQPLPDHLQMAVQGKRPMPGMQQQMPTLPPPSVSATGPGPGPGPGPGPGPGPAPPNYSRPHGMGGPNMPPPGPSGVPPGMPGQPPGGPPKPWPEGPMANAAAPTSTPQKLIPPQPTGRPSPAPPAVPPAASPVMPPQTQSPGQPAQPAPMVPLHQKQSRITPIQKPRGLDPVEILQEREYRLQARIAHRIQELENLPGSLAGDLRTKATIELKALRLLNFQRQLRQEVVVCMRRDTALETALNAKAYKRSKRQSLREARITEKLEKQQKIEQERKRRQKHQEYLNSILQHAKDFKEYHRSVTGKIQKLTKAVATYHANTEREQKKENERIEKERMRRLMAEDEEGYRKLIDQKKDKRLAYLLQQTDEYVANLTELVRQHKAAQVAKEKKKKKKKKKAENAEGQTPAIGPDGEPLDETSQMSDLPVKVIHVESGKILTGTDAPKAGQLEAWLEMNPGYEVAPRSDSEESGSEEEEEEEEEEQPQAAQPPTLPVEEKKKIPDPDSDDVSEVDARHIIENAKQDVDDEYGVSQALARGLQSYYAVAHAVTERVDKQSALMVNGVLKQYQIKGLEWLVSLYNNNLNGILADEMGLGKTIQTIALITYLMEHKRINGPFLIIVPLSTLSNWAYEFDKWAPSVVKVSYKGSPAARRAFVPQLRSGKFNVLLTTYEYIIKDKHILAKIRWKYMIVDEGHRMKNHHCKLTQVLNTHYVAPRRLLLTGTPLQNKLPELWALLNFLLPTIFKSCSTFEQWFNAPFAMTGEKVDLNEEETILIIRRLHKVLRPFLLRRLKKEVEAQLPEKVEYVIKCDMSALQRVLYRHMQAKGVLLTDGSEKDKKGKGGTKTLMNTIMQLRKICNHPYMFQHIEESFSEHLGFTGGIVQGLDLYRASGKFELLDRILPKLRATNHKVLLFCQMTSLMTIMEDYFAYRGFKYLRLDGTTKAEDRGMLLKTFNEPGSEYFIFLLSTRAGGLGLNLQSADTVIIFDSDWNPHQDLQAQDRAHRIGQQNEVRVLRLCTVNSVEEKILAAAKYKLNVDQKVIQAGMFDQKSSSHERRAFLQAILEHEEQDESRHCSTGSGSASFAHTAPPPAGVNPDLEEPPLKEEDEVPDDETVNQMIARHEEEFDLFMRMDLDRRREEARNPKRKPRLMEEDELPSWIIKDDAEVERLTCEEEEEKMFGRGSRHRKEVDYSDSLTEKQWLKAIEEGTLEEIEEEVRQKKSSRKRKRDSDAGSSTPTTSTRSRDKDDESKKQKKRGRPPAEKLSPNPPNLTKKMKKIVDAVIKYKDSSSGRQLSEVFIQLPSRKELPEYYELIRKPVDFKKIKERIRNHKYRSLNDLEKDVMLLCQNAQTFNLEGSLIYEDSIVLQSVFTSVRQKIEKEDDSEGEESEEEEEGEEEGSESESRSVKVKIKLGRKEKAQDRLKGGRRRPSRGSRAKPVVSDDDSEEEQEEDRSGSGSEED

`O=C1CCC(n2c3ccc(CCCN4CCC(N5CCN(C6C[C@@H]7CNc8nnc(-c9ccccc9O)cc8N7C6)CC5)CC4)cc3c3cccnc32)C(=O)N1` (stereo partly drawn) [Example 27, 3-(6-(3-(4-(4-((6aR)-2-(2-hydroxyphenyl)-5,6,6a,7,8,9-hexahydropyrrolo [1′,2′:4,5]pyrazino[2,3-c]pyridazin-8-yl)piperazin-1-yl)piperidin-1-yl)propyl)-9H-pyrido[2,3-b]indol-9-yl)piperidine-2,6-dione] was tested, and the DC50 (SMARCA4-HiBiT) was less than 10 nM, the Dmax (SMARCA4-HiBiT) was 50 to 75% and the DC50 (SMARCA2-HiBiT) was less than 10 nM. The Dmax (SMARCA2-HiBiT) was 50 to 75%.
Work on `O=C1CCC(N2C(=O)c3ccc(N4CCC(CN5CCC(CN6CCN7c8cc(-c9ccccc9O)nnc8NC[C@H]7C6)CC5)CC4)cc3C2=O)C(=O)N1COP(=O)(O)O` (stereo partly drawn) [Example 129, (3-(5-(4-((4-(((S)-2-(2-hydroxyphenyl)-5,6,6a,7,9,10-hexahydro-8H-pyrazino[1′,2′:4,5]pyrazino[2,3-c]pyridazin-8-yl)methyl)piperidin-1-yl)methyl)piperidin-1-yl)-1,3-dioxoisoindolin-2-yl)-2,6-dioxopiperidin-1-yl)methyl) dihydrogen phosphate] yielded a DC50 (SMARCA4-HiBiT) of less than 10 nM, a Dmax (SMARCA4-HiBiT) greater than 85% and a DC50 (SMARCA2-HiBiT) of less than 10 nM. It also gave a Dmax (SMARCA2-HiBiT) greater than 85%.
In the case of `C[C@H]1CN2c3cc(-c4ccccc4O)nnc3NC[C@H]2CN1C[C@H]1[C@@H]2CN(CC3CCN(c4ccc5c(c4)CN(C4CCC(=O)NC4=O)C5=O)CC3)C[C@@H]21` (stereo partly drawn) [Example 57, 3-(5-(4-(((1R,5S,6r)-6-(((6aS,9S)-2-(2-hydroxyphenyl)-9-methyl-5,6,6a,7,9,10-hexahydro-8H-pyrazino[1′,2′:4,5]pyrazino[2,3-c]pyridazin-8-yl)methyl)-3-azabicyclo[3.1.0]hexan-3-yl)methyl)piperidin-1-yl)-1-oxoisoindolin-2-yl)piperidine-2,6-dione], the DC50 (SMARCA4-HiBiT) was less than 10 nM, the Dmax (SMARCA4-HiBiT) was no more than 50% and the DC50 (SMARCA2-HiBiT) was less than 10 nM. For the same molecule, the Dmax (SMARCA2-HiBiT) was 50 to 75%.
Molecule `CN(CCCCN1CCC(CN2CCN3c4cc(-c5ccccc5O)nnc4NC[C@H]3C2)CC1)c1ccc2c(c1)C(=O)N(C1CCC(=O)NC1=O)C2=O` (stereo partly drawn) [Example 227, 2-(2,6-dioxopiperidin-3-yl)-5-((4-(4-(((S)-2-(2-hydroxyphenyl)-5,6,6a,7,9,10-hexahydro-8H-pyrazino[1′,2′:4,5]pyrazino[2,3-c]pyridazin-8-yl)methyl)piperidin-1-yl)butyl)(methyl)amino)isoindoline-1,3-dione] has a DC50 (SMARCA4-HiBiT) of 10 to 100 nM, a Dmax (SMARCA4-HiBiT) of 50 to 75% and a DC50 (SMARCA2-HiBiT) of less than 10 nM. For the same molecule, the Dmax (SMARCA2-HiBiT) was 50 to 75%.
`O=C1CCC(n2ccc3cc(N4CCC(CN5CCC(N6CCN7c8cc(-c9ccccc9O)nnc8NC[C@H]7C6)CC5)CC4)ccc3c2=O)C(=O)N1` (stereo partly drawn) [Example 26, 3-(6-(4-((4-((S)-2-(2-hydroxyphenyl)-5,6,6a,7,9,10-hexahydro-8H-pyrazino [1′,2′:4,5]pyrazino[2,3-c]pyridazin-8-yl)piperidin-1-yl)methyl)piperidin-1-yl)-1-oxoisoquinolin-2(1H)-yl)piperidine-2,6-dione] was tested, and the DC50 (SMARCA4-HiBiT) was less than 10 nM, the Dmax (SMARCA4-HiBiT) was greater than 85% and the DC50 (SMARCA2-HiBiT) was less than 10 nM. It also gave a Dmax (SMARCA2-HiBiT) greater than 85%.
For `CC1(CN2C[C@@H]3[C@@H](CN4CCN5c6cc(-c7ccccc7O)nnc6NC[C@H]5C4)[C@@H]3C2)CCN(c2ccc3c(c2)C(=O)N(C2CCC(=O)NC2=O)C3=O)CC1` (stereo partly drawn) [Example 91, 2-(2,6-dioxopiperidin-3-yl)-5-(4-(((1R,5S,6r)-6-(((S)-2-(2-hydroxyphenyl)-5,6,6a,7,9,10-hexahydro-8H-pyrazino[1′,2′:4,5]pyrazino[2,3-c]pyridazin-8-yl)methyl)-3-azabicyclo[3.1.0]hexan-3-yl)methyl)-4-methylpiperidin-1-yl)isoindoline-1,3-dione], the DC50 (SMARCA4-HiBiT) was 10 to 100 nM, the Dmax (SMARCA4-HiBiT) was 50 to 75% and the DC50 (SMARCA2-HiBiT) was less than 10 nM. It also gave a Dmax (SMARCA2-HiBiT) greater than 85%.
`C[C@H]1CN2c3cc(-c4ccccc4O)nnc3NC[C@H]2CN1C[C@H]1[C@@H]2CN(CC3CCN(c4ccc5c(c4)C(=O)N(C4CCC(=O)NC4=O)C5=O)CC3)C[C@@H]21` (stereo partly drawn) [Example 44, 2-(2,6-dioxopiperidin-3-yl)-5-(4-(((1R,5S,6r)-6-(((6aS,9S)-2-(2-hydroxyphenyl)-9-methyl-5,6,6a,7,9,10-hexahydro-8H-pyrazino[1′,2′:4,5]pyrazino[2,3-c]pyridazin-8-yl)methyl)-3-azabicyclo[3.1.0]hexan-3-yl)methyl)piperidin-1-yl)isoindoline-1,3-dione] was tested, and the DC50 (SMARCA4-HiBiT) was less than 10 nM, the Dmax (SMARCA4-HiBiT) was 50 to 75% and the DC50 (SMARCA2-HiBiT) was less than 10 nM. The Dmax (SMARCA2-HiBiT) was 75 to 85%.
`O=C1CCC(N2Cc3ccc(C4CCN(CC5CCN(C(=O)N6CCN7c8cc(-c9ccccc9O)nnc8NC[C@H]7C6)CC5)CC4)cc3C2=O)C(=O)N1` (stereo partly drawn) [Example 143, 3-(6-(1-((1-((S)-2-(2-hydroxyphenyl)-6,6a,7,8,9,10-hexahydro-5H-pyrazino[1′,2′:4,5]pyrazino[2,3-c]pyridazine-8-carbonyl)piperidin-4-yl)methyl)piperidin-4-yl)-1-oxoisoindolin-2-yl) piperidine-2,6-dione] showed a DC50 (SMARCA4-HiBiT) of 10 to 100 nM, a Dmax (SMARCA4-HiBiT) of 75 to 85% and a DC50 (SMARCA2-HiBiT) of less than 10 nM. The Dmax (SMARCA2-HiBiT) was greater than 85%.
Molecule `O=C1CCC(N2Cc3ccc(N4CCC(CN5C[C@@H]6[C@H](C5)[C@H]6CN5CCN6c7cc(-c8ccccc8O)nnc7NC[C@H]6C5)CC4)cc3C2=O)C(=O)N1` (stereo partly drawn) [Example 232, 3-(6-(4-(((1R,5S,6r)-6-(((S)-2-(2-hydroxyphenyl)-5,6,6a,7,9,10-hexahydro-8H-pyrazino[1′,2′:4,5]pyrazino[2,3-c]pyridazin-8-yl)methyl)-3-azabicyclo[3.1.0]hexan-3-yl)methyl)piperidin-1-yl)-1-oxoisoindolin-2-yl)piperidine-2,6-dione] has a DC50 (SMARCA4-HiBiT) of less than 10 nM, a Dmax (SMARCA4-HiBiT) greater than 85% and a DC50 (SMARCA2-HiBiT) of less than 10 nM. For the same molecule, the Dmax (SMARCA2-HiBiT) was greater than 85%.
Work on `O=C1CCC(N2Cc3ccc(C4CCN(CCCN5CCC(CN6CCN7c8cc(-c9ccccc9O)nnc8NC[C@H]7C6)CC5)CC4)cc3C2=O)C(=O)N1` (stereo partly drawn) [Example 122, 3-(6-(1-(3-(4-(((S)-2-(2-hydroxyphenyl)-5,6,6a,7,9,10-hexahydro-8H-pyrazino[1′,2′:4,5]pyrazino[2,3-c]pyridazin-8-yl)methyl)piperidin-1-yl)propyl)piperidin-4-yl)-1-oxoisoindolin-2-yl)piperidine-2,6-dione] yielded a DC50 (SMARCA4-HiBiT) of 10 to 100 nM, a Dmax (SMARCA4-HiBiT) of 75 to 85% and a DC50 (SMARCA2-HiBiT) of 10 to 100 nM. For the same molecule, the Dmax (SMARCA2-HiBiT) was greater than 85%.
`CC1CN(C(=O)N2CCN3c4cc(-c5ccccc5O)nnc4NC[C@H]3C2)CCN1CC1CCN(c2ccc3c(c2)C(=O)N(C2CCC(=O)NC2=O)C3)CC1` (stereo partly drawn) [Example 106, 3-(6-(4-((4-((S)-2-(2-hydroxyphenyl)-6,6a,7,8,9,10-hexahydro-5H-pyrazino[1′,2′:4,5]pyrazino[2,3-c]pyridazine-8-carbonyl)-2-methylpiperazin-1-yl)methyl)piperidin-1-yl)-1-oxoisoindolin-2-yl)piperidine-2,6-dione] showed a DC50 (SMARCA4-HiBiT) of less than 10 nM, a Dmax (SMARCA4-HiBiT) of 75 to 85% and a DC50 (SMARCA2-HiBiT) of less than 10 nM. It also gave a Dmax (SMARCA2-HiBiT) greater than 85%.
`O=C1CCC(N2C(=O)c3ccc(N4CCC(CN5C[C@@H]6[C@H](C5)[C@H]6CN5CCN6c7cc(-c8ccccc8O)nnc7NC[C@H]6C5)CC4)cc3C2=O)C(=O)N1` (stereo partly drawn) [Example 42, 2-(2,6-dioxopiperidin-3-yl)-5-(4-(((1R,5S,6r)-6-(((S)-2-(2-hydroxyphenyl)-5,6,6a,7,9,10-hexahydro-8H-pyrazino[1′,2′:4,5]pyrazino[2,3-c]pyridazin-8-yl)methyl)-3-azabicyclo[3.1.0]hexan-3-yl)methyl)piperidin-1-yl)isoindoline-1,3-dione] gave a DC50 (SMARCA4-HiBiT) of less than 10 nM, a Dmax (SMARCA4-HiBiT) of 50 to 75% and a DC50 (SMARCA2-HiBiT) of less than 10 nM. The Dmax (SMARCA2-HiBiT) was greater than 85%.
With `O=C1CCC(N2C(=O)c3ccc(NCCN4C[C@@H]5[C@H](C4)[C@H]5CN4CCN5c6cc(-c7ccccc7O)nnc6NC[C@H]5C4)cc3C2=O)C(=O)N1` (stereo partly drawn) [Example 153, 2-(2,6-dioxopiperidin-3-yl)-5-((2-((1R,5S,6r)-6-(((S)-2-(2-hydroxyphenyl)-5,6,6a,7,9,10-hexahydro-8H-pyrazino[1′,2′:4,5]pyrazino[2,3-c]pyridazin-8-yl)methyl)-3-azabicyclo[3.1.0]hexan-3-yl)ethyl)amino)isoindoline-1,3-dione] the DC50 (SMARCA4-HiBiT) was 10 to 100 nM, the Dmax (SMARCA4-HiBiT) was 75 to 85% and the DC50 (SMARCA2-HiBiT) was less than 10 nM. It also gave a Dmax (SMARCA2-HiBiT) of 50 to 75%.
